According to the supplement of paper PMC10307832:

Assays:
Assay in all cases: relative viability (nuclei count vs DMSO), 5 days (fraction); higher = more cells survive
Bortezomib + Phenformin = compound: CC(C)C[C@H](NC(=O)[C@H](Cc1ccccc1)NC(=O)c1cnccn1)B(O)O [Bortezomib] + N=C(N)NC(=N)NCCc1ccccc1 [Phenformin] (partner 250 µM)
In short: (§1)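 Nuclei were stained with Hoechst during a one-step fixation (final 0.05% Triton X-100, 1% formaldehyde, 1 ug/ml Hoechst) carried out 5 days after dosing, then counted on 4× images. The cells, lung cancer lines in 1536-well plates, had been dosed by pin tool the day after seeding with one drug alone or a fixed anchor-drug dose plus five library-drug doses (not always all listed) in √10 steps. Relative viability is the nuclei count in treated wells divided by that in vehicle wells, and each value is the median of duplicate plates.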

[1] = compound: CC1=CC(=NN1)NC2=CC(=NC(=N2)/C=C/C3=CC=CC=C3)N4CCN(CC4)C + O=C(c1cc(Cc2n[nH]c(=O)c3ccccc23)ccc1F)N1CCN(C(=O)C2CC2)CC1 [Olaparib] (partner 8 µM)
In short: as §1

Obatoclax + Bortezomib = compound: COC1=CC(c2cc3ccccc3[nH]2)=N/C1=C\c1[nH]c(C)cc1C [Obatoclax] + CC(C)C[C@H](NC(=O)[C@H](Cc1ccccc1)NC(=O)c1cnccn1)B(O)O [Bortezomib] (partner 0.002 µM)
In short: as §1

Obatoclax + Pemetrexed = compound: COC1=CC(c2cc3ccccc3[nH]2)=N/C1=C\c1[nH]c(C)cc1C [Obatoclax] + Nc1nc2[nH]cc(CCc3ccc(C(=O)N[C@@H](CCC(=O)O)C(=O)O)cc3)c2c(=O)[nH]1 [Pemetrexed] (partner 0.2 µM)
In short: as §1

Row | Cell Line | relative viability (Bortezomib + Phenformin; first compound 0.0002 µM) | relative viability (Bortezomib + Phenformin; first compound 0.000632 µM) | relative viability (Bortezomib + Phenformin; first compound 0.002 µM) | relative viability (Bortezomib + Phenformin; first compound 0.006325 µM) | relative viability (Bortezomib + Phenformin; first compound 0.02 µM) | relative viability ([1]; first compound 0.08 µM) | relative viability ([1]; first compound 0.253 µM) | relative viability ([1]; first compound 0.8 µM) | relative viability ([1]; first compound 2.53 µM) | relative viability ([1]; first compound 8 µM) | relative viability (Obatoclax + Bortezomib; first compound 0.01 µM) | relative viability (Obatoclax + Bortezomib; first compound 0.03162 µM) | relative viability (Obatoclax + Bortezomib; first compound 0.1 µM) | relative viability (Obatoclax + Bortezomib; first compound 0.3162 µM) | relative viability (Obatoclax + Bortezomib; first compound 1 µM) | relative viability (Obatoclax + Pemetrexed; first compound 0.01 µM) | relative viability (Obatoclax + Pemetrexed; first compound 0.03162 µM) | relative viability (Obatoclax + Pemetrexed; first compound 0.1 µM) | relative viability (Obatoclax + Pemetrexed; first compound 0.3162 µM) | relative viability (Obatoclax + Pemetrexed; first compound 1 µM)
1 | NCI-H2023 | 0.494 | 0.411 | 0.389 | 0.0877 | 0.0739 | 0.464 | 0.586 | 0.384 | 0.0975 | 0.0526 | 1.03 | 1.08 | 0.808 | 0.675 | 0.425 | 0.3 | 0.217 | 0.24 | 0.188 | 0.134
2 | NCI-H2085 | 0.757 | 0.826 | 0.693 | 0.318 | 0.16 | 0.783 | 0.792 | 0.755 | 0.429 | 0.28 | 1.06 | 1.1 | 0.93 | 0.88 | 0.427 | 0.886 | 1 | 0.705 | 0.709 | 0.298
3 | NCI-H2087 | 0.451 | 0.441 | 0.312 | 0.0487 | 0.0431 | 0.538 | 0.629 | 0.553 | 0.303 | 0.0973 | 0.645 | 0.775 | 0.665 | 0.779 | 0.335 | 0.623 | 0.675 | 0.688 | 0.674 | 0.473
4 | NCI-H2126 | 0.528 | 0.534 | 0.538 | 0.34 | 0.256 | 0.865 | 0.91 | 0.908 | 0.801 | 0.518 | 1.13 | 1.04 | 1.09 | 1.12 | 1.07 | 0.661 | 0.62 | 0.703 | 0.704 | 0.649
5 | NCI-H2228 | 0.271 | 0.31 | 0.257 | 0.0882 | 0.0761 | 0.699 | 0.727 | 0.374 | 0.316 | 0.0565 | 0.96 | 1.01 | 1.25 | 0.626 | 0.367 | 0.317 | 0.308 | 0.367 | 0.304 | 0.274
6 | NCI-H2347 | 0.493 | 0.512 | 0.594 | 0.298 | 0.257 | 0.553 | 0.665 | 0.578 | 0.565 | 0.406 | 0.935 | 0.859 | 1.07 |  | 0.95 | 0.399 | 0.419 | 0.37 | 0.392 | 0.38
7 | NCI-H2405 | 0.513 | 0.319 | 0.393 | 0.241 | 0.109 | 0.842 | 0.937 | 0.93 | 0.753 | 0.183 | 1.01 | 0.852 |  | 0.982 | 1.07 | 1.11 | 1.01 |  | 1.07 | 0.927
8 | NCI-H3122 | 0.391 | 0.368 | 0.404 | 0.121 | 0.105 | 0.568 | 0.722 | 0.654 | 0.62 | 0.474 | 0.966 | 1.01 | 1.02 | 1.03 | 1.06 | 0.19 | 0.202 | 0.2 | 0.203 | 0.221
9 | PC-3 [JPC-3] | 0.495 | 0.485 | 0.472 | 0.24 | 0.175 | 1.16 | 1.31 | 1.22 | 1.09 | 0.615 | 0.905 | 0.789 | 0.815 | 0.827 | 0.977 | 1.07 | 0.933 | 0.925 | 0.645 | 0.476
10 | PC-14 | 0.434 | 0.487 | 0.616 | 0.183 | 0.061 | 0.285 | 0.289 | 0.275 | 0.0326 | 0.0264 | 0.782 | 0.947 | 0.777 | 0.798 | 0.283 | 0.129 | 0.147 | 0.125 | 0.149 | 0.109
11 | RERF-LC-KJ | 0.377 | 0.42 | 0.415 | 0.337 | 0.272 | 0.982 | 0.88 | 0.882 | 0.243 | 0.201 | 1.04 | 1.07 | 1.09 | 0.851 | 0.765 | 0.466 | 0.461 | 0.448 | 0.457 | 0.45
12 | SK-LU-1 | 0.561 | 0.499 | 0.467 | 0.122 | 0.0951 | 0.405 | 0.515 | 0.423 | 0.273 | 0.125 | 1.15 | 1.05 | 0.44 | 1.05 | 0.75 | 0.861 | 0.984 | 0.937 | 0.759 | 0.415
13 | SW 1573 | 0.384 | 0.349 | 0.205 | 0.0918 | 0.0612 | 0.442 | 0.413 | 0.377 | 0.111 | 0.0633 | 1.04 | 0.998 | 0.925 | 0.895 | 0.476 | 0.824 | 0.938 | 0.887 | 0.427 | 0.196
14 | UMC-11 | 0.371 | 0.313 | 0.333 | 0.292 | 0.236 | 0.361 | 0.39 | 0.395 | 0.0656 | 0.167 | 0.645 | 0.428 | 0.689 | 0.743 | 0.265 | 0.768 | 0.808 | 0.82 | 0.795 | 0.433
